Assays:
Details in all cases: 72 h
Caco-2 [1] = test: cell viability relative to DMSO; higher = less toxic
Calu-3 [2] = test: as above
HepG2 [3] = test: as above
U2OS [4] = test: as above
Vero E6 [5] = test: as above
Calu-3 [6] = test: relative viability EC50 (midpoint between 100% and the lowest measured viability); higher = less toxic
HepG2 [7] = test: as above
U2OS [8] = test: as above
Vero E6 [9] = test: as above
Caco-2 [10] = test: drug sensitivity score (DSS) for viability; higher = more toxic; extreme values may be limits of the assay
Calu-3 [11] = test: as above
HepG2 [12] = test: as above
U2OS [13] = test: as above
Vero E6 [14] = test: as above

Compound	cell viability (Caco-2 [1]; 1 nM) [%]	cell viability (Caco-2 [1]; 10 nM) [%]	cell viability (Caco-2 [1]; 100 nM) [%]	cell viability (Caco-2 [1]; 1000 nM) [%]	cell viability (Caco-2 [1]; 10000 nM) [%]	cell viability (Calu-3 [2]; 1 nM) [%]	cell viability (Calu-3 [2]; 10 nM) [%]	cell viability (Calu-3 [2]; 100 nM) [%]	cell viability (Calu-3 [2]; 1000 nM) [%]	cell viability (Calu-3 [2]; 10000 nM) [%]	cell viability (HepG2 [3]; 1 nM) [%]	cell viability (HepG2 [3]; 10 nM) [%]	cell viability (HepG2 [3]; 100 nM) [%]	cell viability (HepG2 [3]; 1000 nM) [%]	cell viability (HepG2 [3]; 10000 nM) [%]	cell viability (U2OS [4]; 1 nM) [%]	cell viability (U2OS [4]; 10 nM) [%]	cell viability (U2OS [4]; 100 nM) [%]	cell viability (U2OS [4]; 1000 nM) [%]	cell viability (U2OS [4]; 10000 nM) [%]	cell viability (Vero E6 [5]; 1 nM) [%]	cell viability (Vero E6 [5]; 10 nM) [%]	cell viability (Vero E6 [5]; 100 nM) [%]	cell viability (Vero E6 [5]; 1000 nM) [%]	cell viability (Vero E6 [5]; 10000 nM) [%]	relative viability EC50 (Calu-3 [6]) [µM]	relative viability EC50 (HepG2 [7]) [µM]	relative viability EC50 (U2OS [8]) [µM]	relative viability EC50 (Vero E6 [9]) [µM]	drug sensitivity score (Caco-2 [10])	drug sensitivity score (Calu-3 [11])	drug sensitivity score (HepG2 [12])	drug sensitivity score (U2OS [13])	drug sensitivity score (Vero E6 [14])
O=C(Nc1cccnc1)N1CCC(Cc2cccc(Oc3ccc(C(F)(F)F)cn3)c2)CC1 [PF-3845]	99.7	103	90.3	92.4	66.9	103	105	104	102	79.1	109	102	98.3	101	32.7	97.3	107	101	98.5	82.7	103	96.8	89.9	101	78.7	> 10	3.25	> 10	> 10	2.4	0.5	3.6	0.6	0.6
COc1cc(N2CCC(N3CCN(C)CC3)CC2)ccc1Nc1ncc(Cl)c(Nc2ccccc2P(C)(C)=O)n1 [brigatinib]	94.9	97	92.8	94	73	105	102	106	89.5	35.3	98.1	92.8	105	81.7	55	97.2	99.5	97.4	98.4	64.8	98.7	102	101	94.5	78.5	1.92	–	–	> 10	1.8	5.3	4.8	1.9	1.4
O=C(O)Cc1ccccc1Nc1c(Cl)cccc1Cl [diclofenac]	–	–	–	–	–	–	–	–	–	–	–	–	–	–	–	–	–	–	–	–	–	–	–	–	–	–	–	–	–	–	0	–	0	0
CC[C@H](C)C(=O)O[C@H]1C[C@H](O)C=C2C=C[C@H](C)[C@H](CC[C@@H](O)C[C@@H](O)CC(=O)O)[C@H]21 [PRAVASTATIN SODIUM]	–	–	–	–	–	98.2	93.8	93.3	98.2	95.2	112	105	93	86.1	112	97.7	[…]	94.2	101	98.5	98.9	109	107	96.4	105	[…]	[…]	[…]	[…]	–	0	0	0	0
CN1CCN(c2ccc(Nc3ncc4cc(C#N)c(=O)n(C5CCCC5)c4n3)cc2)CC1	98	93.9	101	92.3	74.9	105	103	98.9	87.9	111	99.8	99.7	102	88.8	52.9	100	98	102	98.3	70	105	107	107	99.1	58.1	> 10	–	–	–	2	0	4.2	1.5	2.2
O=C(N[C@H](CO)[C@H](O)c1ccc([N+](=O)[O-])cc1)C(Cl)Cl [chloramphenicol]	–	–	–	–	–	–	–	–	–	–	–	–	–	–	–	–	–	–	–	–	–	–	–	–	–	–	–	–	–	–	0	1.1	0	0
CCNC(=O)[C@@H]1CCCN1C(=O)[C@H](CCCNC(=N)N)NC(=O)[C@H](CC(C)C)NC(=O)[C@@H](CC(C)C)NC(=O)[C@H](Cc1ccc(O)cc1)NC(=O)[C@H](CO)NC(=O)[C@H](Cc1c[nH]c2ccccc12)NC(=O)[C@H](Cc1c[nH]cn1)NC(=O)[C@@H]1CCC(=O)N1 [leuprolide]	107	114	107	114	72.2	99.5	99.3	95	110	103	–	–	–	–	–	92.6	96.9	103	97	102	102	99.3	98.6	105	105	> 10	–	> 10	> 10	0.7	0	–	0	0
Cc1sc2c(c1C)C(c1ccc(Cl)cc1)=N[C@@H](CC(=O)Nc1ccc(O)cc1)c1nnc(C)n1-2 [OTX015]	105	94.5	95.6	84.6	53.1	109	113	108	82.3	55.9	106	110	85.1	47.4	24.9	99.7	102	89.3	62.9	38.8	97.5	92.7	84.5	21.8	8	–	0.434	0.592	0.298	4.3	4.7	11.6	8.2	16.3
N[C@@H](Cc1cc(I)c(Oc2ccc(O)c(I)c2)c(I)c1)C(=O)O [liothyronine]	93.8	98.5	96.7	98.1	96.5	98.9	96.8	92.5	93.5	95	102	104	107	96.6	–	97.1	97.5	93.4	96	93.5	104	92.4	92.6	88.6	91.3	–	–	–	–	0	0	0	0	1
CSCC[C@H](NC(=O)[C@H](CC(C)C)NC(=O)CNC(=O)[C@H](Cc1ccccc1)NC(=O)[C@H](Cc1ccccc1)NC(=O)[C@H](CCC(N)=O)NC(=O)[C@H](CCC(N)=O)NC(=O)[C@@H]1CCCN1C(=O)[C@H](CCCCN)NC(=O)[C@@H]1CCCN1C(=O)[C@@H](N)CCCN=C(N)N)C(N)=O [substance-P]	–	–	–	–	–	103	98.4	102	96.5	95.6	88.1	96.3	100	107	105	99.5	97.2	96.2	96.7	98.2	102	97.5	103	102	99	> 10	> 10	> 10	> 10	–	0	0	0	0
CC(C)(C)c1ccc(NC(=O)N2CCN(c3ncccc3Cl)CC2)cc1 [BCTC]	88.8	99.6	92.8	89.9	62.2	98.1	101	99.5	102	71.2	99.3	92.7	96.7	102	93.3	99.3	106	97.4	101	95	99	101	100	94.4	86.1	–	> 10	> 10	> 10	3	1.1	0	0	0.5
Oc1ccc(Cl)cc1Cc1cc(Cl)ccc1O [dichlorophen]	107	88.9	108	70.1	54.6	–	–	–	–	–	105	89.4	96.9	97.9	76.6	101	95.1	96.7	99.7	93.5	106	99.4	104	97.5	86.7	–	> 10	> 10	> 10	5.9	–	1.1	0	0.3
COc1ccc(C(=O)N2CCCC2=O)cc1 [aniracetam]	–	–	–	–	–	–	–	–	–	–	–	–	–	–	–	–	–	–	–	–	–	–	–	–	–	–	–	–	–	–	0	0	0	0
Clc1ccc(C2(c3ccc(-c4cn[nH]c4)cc3)CCNCC2)cc1 [AT7867]	103	93.3	105	98.2	73.9	99.7	98.7	110	132	79.5	102	101	97.6	84.9	54.2	103	95.1	94.9	90.3	34.8	100	97	97.5	84.9	39.8	> 10	–	2	1.55	1.3	0.2	4.4	5.2	5.6
